Read-outs that look alike come from different tables or passages of the source.
Legend:
p38 = biological target: T1, p38 (Homo sapiens, UniProt Q16539); test: in vitro inhibition of p38 (CPSB): purified recombinant 6xHis-p38, myelin basic protein substrate, 33P-ATP; format: biochemical
T1 construct: 6xHis (N); made in house; host or cells: E. coli
Protocol: Compounds of the invention were measured for their ability to inhibit the activity of p38 by the following in vitro assay.
A solution (38 μL) of purified recombinant p38 (where the amount of enzyme was determined empirically considering the linear range of the assay and the acceptable signal to noise ratio; 6xHis-p38 expressed in E.coli), myelin basic protein substrate (also determined empirically), a buffer of pH 7.5 (Hepes:25 mM, MgCl2 :10 mM, MnCl2 :10 mM) were added to 92 wells of a 96-well round bottom polypropylene plate. The remaining wells were used for control ("CTRL") and background ("BKG"). The CTRL was prepared with the enzyme, substrate buffer and 2% DMSO, and the BKG was prepared with substrate buffer and 2% DMSO. A solution (12 μL) of the test compound in DMSO (compounds were diluted to 125 μM in 10% DMSO/H2 O and assayed at 25 μM where the final DMSO concentration was 2%) was added to the testing wells. The ATP/^33 P-ATP solution (10 μL: containing 50 μM unlabeled ATP and 1 μCi ^33 P-ATP) was added to all wells and the completed plates were mixed and incubated at 30° C. for 30 min. Icecold 50% TCA/10 mM sodium phosphate (60 μL) were added to each well and the plates were kept on ice for 15 min. The contents of each well were transferred to the wells of a 96-well filterplate (Millipore, MultiScreen-DP) and the filterplate was placed on a vacuum manifold, fitted with a waste collection tray. The wells were washed five times with 10% TCA/10 mM sodium phosphate (200 μL) under vacuum. MicroScint-20 scintillant was added, the plates were sealed using Topseal-S sheets and counted in a Packard TopCount scintillation counter using a ^33 P liquid program with color quench correction, where the output is in color quench-corrected cpm. The % inhibition of the test compounds was calculated by the following formula: % inhibition=[1-(sample-BKG)/(CTRL-BKG)]×100.
Although compounds were initially tested at 25 μM, if warranted the compounds were tested at 4-fold increments above and below that concentration. In addition, lC50 s were calculated for some compounds using the Deltagraph 4-parameter curve fitting program.

TNF-α [1] = test: in vitro whole cell assay: LPS-stimulated TNF-α production in PBMC (ELISA); format: cell-based, human; details: for IC50: read-out: TNF-α IC50
Protocol: In addition to the enzyme assay, the compounds of the invention were tested in an in vitro whole cell assay using peripheral blood mononuclear cells ("PBMC") which were obtained from human blood as follows. Freshly obtained venous blood was anticoagulated with heparin, diluted with an equal volume of phosphate buffered saline ("PBS") and placed in a sterile tube or other container. Aliquots (30 mL) of this mixture were transferred to centrifuge tubes which were underlaid with Ficoll-Hypaque (15 mL). The prepared tubes were centrifuged at 400×g without braking for 30 min at room temperature. Approximately 1/2 to 2/3 of the platelet layer above the mononuclear cell band was removed with a pipet. The majority of the mononuclear cell layer was carefully removed using a pipet and these PBMCs were diluted with PBS and spun at 600×g for 15 min. The resulting PBMCs were washed with another portion of PBS and spun at 400×g for 10 min at room temperature. The recovered pellets were diluted in low endotoxin RPMI/1% FCS culture medium and gave a cell concentration of 0.5-2.0 X 10^6 PMBC/mL. A small volume of the suspension was removed for counting on a hemocytometer and the remaining preparation was centrifuged at 200×g for 15 min at room temperature. The recovered pelleted PMBC were resuspended in RPMI/1% FCS to a concentration of 1.67×10^6 /mL.
To run the assay, the PBMC suspension (180 μL) was transferred to duplicate wells of a 96-well flat-bottom microtiter plate and incubated for 1 h at 37° C. A solution of test compound (10 μL: prepared at 20×the desired final concentration) was added to each well and the plate was incubated for 1 h at 37° C. A solution (10 μL) of LPS in RPMI/1% FCS (200 ng/mL) was added and the wells were incubated overnight at 37° C. The supernate (100 μL) was removed from each well and diluted with RPMI/1% FCS (400 μL). The samples were analyzed for TNF-α using a commercial ELISA kit (Genzyme). […] Since imidazoles which are unsubstituted at the 1-position are subject to tautomerization, the substituents listed for R1 and R2 are interchangeable when R3 is hydrogen.

IL-1β = test: in vitro IL-1β production by LPS-stimulated plastic-adherent cells from PBMC (ELISA); format: cell-based; details: adherent cells from human PBMC, read-out: inhibited the production of IL-1B, IC50
Protocol: Aliquots (30 mL) of this mixture were transferred to centrifuge tubes which were underlaid with Ficoll-Hypaque (15 mL). The prepared tubes were centrifuged at 400×g without braking for 30 min at room temperature. […] A small volume of the suspension was removed for counting on a hemocytometer and the remaining preparation was centrifuged at 200×g for 15 min at room temperature.

TNF-α [2] = test: in vivo rodent assay: inhibition of LPS induced TNF-α production, mouse; details: oral, 25 mg/kg, LPS 1 mg/kg i.p.
Protocol: Mice (BALB / cJ females, Jackson Laboratories) or rats (Lewis males, Charles River) were fasted for 30 min prior to oral dosing with 5-10 mL/kg of test compound at 5-50 mg/kg. Thirty minutes after dosing, the animals were injected intraperitoneally with LPS at 1 mg/kg and returned to their cages for I h. Animals were anesthetized by CO2, exsanguinated by cardiac puncture and whole blood collected (0.1-0.7 mL). The blood was allowed to clot and serum was transferred to a centrifuge tube. This sample was centrifuged, serum was collected, aliquoted and frozen at -80° C. Samples were tested by commercial ELISAs for TNF-α (Endogen for mouse TNF-α and Biosource for rat TNF-α). Compounds 15 and 56 inhibited TNF-α production in the mouse at 88% and 37% respectively at a dose of 25 mg/kg.

T1 sequence (Q16539 whole entry): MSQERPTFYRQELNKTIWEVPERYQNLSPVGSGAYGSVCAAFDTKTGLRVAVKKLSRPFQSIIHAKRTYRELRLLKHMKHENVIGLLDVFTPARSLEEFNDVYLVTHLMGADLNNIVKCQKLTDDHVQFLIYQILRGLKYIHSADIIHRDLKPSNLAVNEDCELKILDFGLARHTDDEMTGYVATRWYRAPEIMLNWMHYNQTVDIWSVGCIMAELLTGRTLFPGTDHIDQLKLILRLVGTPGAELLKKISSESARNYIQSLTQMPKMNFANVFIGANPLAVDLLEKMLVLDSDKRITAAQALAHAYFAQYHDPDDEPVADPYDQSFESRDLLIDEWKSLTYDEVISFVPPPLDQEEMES

Row | SMILES | IC50 (p38) [nM] | IC50 (TNF-α [1]; Homo sapiens, PBMC) [nM] | IC50 (TNF-α [1]; human PBMC, LPS) [nM] | further results
1 | O=C(NCCCSc1nc(-c2ccncc2)c(-c2ccc(F)cc2)[nH]1)c1cccs1 [Compound 4, 5(4)-(4-Fluorophenyl)-2-(3-(thien-2-ylamido)prop-1-yl)thio-4(5)-(4-pyridyl)-imidazole] | 1250 | 10 | – | –
2 | O=Cc1nc(-c2ccncc2)c(-c2ccc(F)cc2)[nH]1 [Compound 8, 5(4)-(4-Fluorophenyl)-4(5)-(4-pyridyl)-2-imidazole carboxaldehyde] | 800 | 140 | – | –
3 | O=C(CCCO)c1nc(-c2ccncc2)c(-c2ccc(F)cc2)[nH]1 [Compound 10, 4-Hydroxy-1-[5-(4-fluorophenyl)-4-(4-pyridyl)-imidazol-2-yl]butanone] | – | – | 400 | IC50 (IL-1β): 800 nM
4 | O=S(=O)(CCO)Cc1nc(-c2ccncc2)c(-c2ccc(F)cc2)[nH]1 [Compound 15, 5-(4-Fluorophenyl)-2-[4-hydroxy-2-sulfonyl-but-1-yl]-4-(4-pyridyl)-imidazole] | – | – | 40 | inhibited TNF-α production in the mouse (TNF-α [2]): 88%
5 | OCCCCc1nc(-c2ccncc2)c(-c2ccc(F)cc2)[nH]1 [Compound 16b, 4-[5(4)-(4-Fluorophenyl)4(5)-(4-pyridyl)imidazol-2-yl]butanol] | 1590 | 10 | – | –
6 | CC(=O)OCCCCc1nc(-c2ccc(F)cc2)c(-c2ccncc2)n1Cc1ccccc1 [Compound 17, 4-[1-Benzyl-4-(4-fluorophenyl)-5-(4-pyridyl)imidazol-2-yl]butyl acetate] | 2630 | 500 | – | –
7 | O=C1c2ccccc2C(=O)N1CCSc1nc(-c2ccc(F)cc2)c(-c2ccncc2)[nH]1 [Compound 25] | – | – | 500 | CPSB % inhibition (p38; @ 5 μm): 52%
8 | O=C(NCCCSc1nc(-c2ccncc2)c(-c2ccc(F)cc2)[nH]1)c1ccccc1 [Compound 26] | 2180 | 100 | – | –
9 | O=C1c2ccccc2C(=O)N1CCCCSc1nc(-c2ccncc2)c(-c2ccc(F)cc2)[nH]1 [Compound 27] | 2460 | 2000 | – | –
10 | O=C(NCCCSc1nc(-c2ccncc2)c(-c2ccc(F)cc2)[nH]1)c1cccc2ccccc12 [Compound 28] | 1250 | 97 | – | IC50 (IL-1β): 86 nM
11 | O=C(NCCCSc1nc(-c2ccc(F)cc2)c(-c2ccncc2)[nH]1)c1ccco1 [Compound 29] | – | – | 112 | CPSB % inhibition (p38; @ 20 μm): 91%
12 | O=S(=O)(NCCCSc1nc(-c2ccc(F)cc2)c(-c2ccncc2)[nH]1)c1ccccc1 [Compound 30] | – | – | 100 | CPSB % inhibition (p38; @ 20 μm): 92%
13 | CC(=O)OCCCCc1nc(-c2ccncc2)c(-c2ccc(F)cc2)n1COCC[Si](C)(C)C [Compound 45] | – | – | – | CPSB % inhibition (p38; @ 20 μm): 8%; TNF-α inhibition in words (TNF-α [1]; human PBMC, LPS): inactive
14 | C[Si](C)(C)CCOCn1c(CCCCO)nc(-c2ccncc2)c1-c1ccc(F)cc1 [Compound 46] | – | – | – | CPSB % inhibition (p38; @ 20 μm): 9%; TNF-α inhibition in words (TNF-α [1]; human PBMC, LPS): inactive
15 | O=C1c2ccccc2C(=O)N1CCCn1c(CO)nc(-c2ccc(F)cc2)c1-c1ccncc1 [Compound 56] | – | – | 30 | inhibited TNF-α production in the mouse (TNF-α [2]): 37%
16 | CCCS(=O)(=O)Cc1nc(-c2ccncc2)c(-c2ccc(F)cc2)[nH]1 [Compound 59] | – | – | 55 | IC50 (IL-1β): 350 nM
